In patent US6518290B1, “Substituted oxazoles and thiazoles derivatives as HPPAr alpha activators” (priority 1999, dated 2003):
pEC50: −log10 of the molar value.

Experiments:
Format in all cases: cell-based
[1] = target: T1, human PPAR alpha (Homo sapiens, UniProt Q07869); assay: PPAR transient transfection (transactivation) assay in CV-1 cells, hPPAR alpha; conditions: PPAR LBD-GAL4 chimera, SPAP reporter, 24 h with compound, read-out: human αEC50
T1 construct: expressed in transfected cells; host or cells: CV-1 cells
T1 sequence (Q07869 239-466 limits assumed): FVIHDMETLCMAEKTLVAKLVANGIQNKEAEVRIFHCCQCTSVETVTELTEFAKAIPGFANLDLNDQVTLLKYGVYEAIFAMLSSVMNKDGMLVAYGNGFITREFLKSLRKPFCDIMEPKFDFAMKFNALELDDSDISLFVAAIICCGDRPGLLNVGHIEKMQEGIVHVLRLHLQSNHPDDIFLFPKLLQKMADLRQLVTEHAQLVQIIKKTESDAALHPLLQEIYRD
Excerpt: Compounds were screened for functional potency in transient transfection assays in CV-1 cells for their ability to activate the PPAR subtypes (transactivation assay). A previously established chimeric receptor system was utilized to allow comparison of the relative transcriptional activity of the receptor subtypes on the same target gene and to prevent endogenous receptor activation from complicating the interpretation of results. See, for example, Lehmann, J. M.; Moore, L. B.; Smith-Oliver, T. A.; Wilkison, W. O.; Willson, T. M.; Kliewer, S. A., An antidiabetic thiazolidinedione is a high affinity ligand for peroxisome proliferator-activated receptor γ (PPARγ), J. Biol. Chem., 1995, 270, 12953-6. The ligand binding domains for murine and human PPAR alpha, PPAR gamma, and PPAR delta were each fused to the yeast transcription factor GAL4 DNA binding domain. CV-1 cells were transiently transfected with expression vectors for the respective PPAR chimera along with a reporter construct containing five copies of the GAL4 DNA binding site driving expression of secreted placental alkaline phosphatase (SPAP) and β-galactosidase. After 16 h, the medium was exchanged to DME medium supplemented with 10% delipidated fetal calf serum and the test compound at the appropriate concentration. After an additional 24 h, cell extracts were prepared and assayed for alkaline phosphatase and β-galactosidase activity. […] Rosiglitazone (BRL 49653) was used as a positive control in the hPPAR gamma assay. The positive control in the hPPAR alpha assays was 2-(2-methyl-3-[3-{3-(4-cyclohexylamino)-[6-(4-fluorophenylpiperazin-1-yl)][1,3,5]triazin-2-ylamino}propyl]phenylthio)-2-methylpropionic acid. The positive control for PPAR delta assays was 2-{2-methyl-4-[({4-methyl-2-{trifluoromethyl)phenyl]-1,3-thiazol-5-yl}methyl)sulfanyl]phenoxy}acetic acid.

[2] = target: T2, human PPAR gamma (Homo sapiens, UniProt P37231); assay: PPAR transient transfection (transactivation) assay in CV-1 cells, hPPAR gamma; conditions: PPAR LBD-GAL4 chimera, SPAP reporter, 24 h with compound, read-out: human γEC50
T2 construct: expressed in transfected cells; host or cells: CV-1 cells
T2 sequence (P37231 238-503 limits assumed): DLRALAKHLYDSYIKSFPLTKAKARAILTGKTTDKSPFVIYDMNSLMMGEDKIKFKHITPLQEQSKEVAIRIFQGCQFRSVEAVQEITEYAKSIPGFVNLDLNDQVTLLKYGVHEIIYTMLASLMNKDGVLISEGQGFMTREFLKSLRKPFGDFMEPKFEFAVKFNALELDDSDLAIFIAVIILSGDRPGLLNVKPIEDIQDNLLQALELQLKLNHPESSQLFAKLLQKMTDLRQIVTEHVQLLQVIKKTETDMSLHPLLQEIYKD
Excerpt: (§1) Compounds were screened for functional potency in transient transfection assays in CV-1 cells for their ability to activate the PPAR subtypes (transactivation assay). A previously established chimeric receptor system was utilized to allow comparison of the relative transcriptional activity of the receptor subtypes on the same target gene and to prevent endogenous receptor activation from complicating the interpretation of results. See, for example, Lehmann, J. M.; Moore, L. B.; Smith-Oliver, T. A.; Wilkison, W. O.; Willson, T. M.; Kliewer, S. A., An antidiabetic thiazolidinedione is a high affinity ligand for peroxisome proliferator-activated receptor γ (PPARγ), J. Biol. Chem., 1995, 270, 12953-6. The ligand binding domains for murine and human PPAR alpha, PPAR gamma, and PPAR delta were each fused to the yeast transcription factor GAL4 DNA binding domain. CV-1 cells were transiently transfected with expression vectors for the respective PPAR chimera along with a reporter construct containing five copies of the GAL4 DNA binding site driving expression of secreted placental alkaline phosphatase (SPAP) and β-galactosidase. After 16 h, the medium was exchanged to DME medium supplemented with 10% delipidated fetal calf serum and the test compound at the appropriate concentration. After an additional 24 h, cell extracts were prepared and assayed for alkaline phosphatase and β-galactosidase activity. Alkaline phosphatase activity was corrected for transfection efficiency using the β-galactosidase activity as an internal standard (see, for example, Kliewer, S. A., et. al. Cell 83, 813-819 (1995)). Rosiglitazone (BRL 49653) was used as a positive control in the hPPAR gamma assay. The positive control in the hPPAR alpha assays was 2-(2-methyl-3-[3-{3-(4-cyclohexylamino)-[6-(4-fluorophenylpiperazin-1-yl)][1,3,5]triazin-2-ylamino}propyl]phenylthio)-2-methylpropionic acid. The positive control for PPAR delta assays was 2-{2-methyl-4-[({4-methyl-2-{trifluoromethyl)phenyl]-1,3-thiazol-5-yl}methyl)sulfanyl]phenoxy}acetic acid.

[3] = target: T3, human PPAR delta (Homo sapiens, UniProt Q03181); assay: PPAR transient transfection (transactivation) assay in CV-1 cells, PPAR delta; conditions: PPAR LBD-GAL4 chimera, SPAP reporter, 24 h with compound, read-out: human δEC50
T3 construct: expressed in transfected cells; host or cells: CV-1 cells
T3 sequence (Q03181 211-439 limits assumed): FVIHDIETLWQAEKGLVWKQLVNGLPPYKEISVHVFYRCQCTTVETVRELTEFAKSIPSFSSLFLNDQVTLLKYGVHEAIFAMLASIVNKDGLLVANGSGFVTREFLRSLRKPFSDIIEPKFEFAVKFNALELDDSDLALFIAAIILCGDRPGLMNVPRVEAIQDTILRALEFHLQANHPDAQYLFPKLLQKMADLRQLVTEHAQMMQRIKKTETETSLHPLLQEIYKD
Excerpt: as §1

pEC50 [1] | pEC50 [2] | pEC50 [3] | SMILES
6.91 | ≤ 5.00 | ≤ 5.00 | Cc1nc(-c2ccccc2)sc1C(=O)NCc1ccc(OC(C)(C)C(=O)O)cc1 [Example 29, 2-Methyl-2-[4-{[(4-methyl-2-phenylthiazol-5-ylcarbonyl)amino]methyl}phenoxy]propionic Acid]
8.15 | ≤ 5.00 | 5.04 | Cc1nc(-c2ccc(C(F)(F)F)c(F)c2)sc1C(=O)NCc1ccc(OC(C)(C)C(=O)O)cc1 [Example 23, 2-Methyl-2-[4-{[(4-methyl-2-[3-fluoro-4-trifluoromethylphenyl]-thiazol-5-ylcarbonyl)amino]methyl}phenoxy]propionic Acid]
8.40 | ≤ 5.00 | 5.34 | Cc1nc(-c2ccc(OC(F)(F)F)cc2)sc1C(=O)NCc1ccc(OC(C)(C)C(=O)O)cc1 [Example 35, 2-Methyl-2-[4-{[(4-methyl-2-[4-trifluoromethoxyphenyl]-thiazol-5-ylcarbonyl)amino]methyl}phenoxy]propionic Acid]
8.00 | ≤ 5.00 | 5.57 | Cc1nc(-c2ccc(Br)cc2)sc1C(=O)NCc1ccc(OC(C)(C)C(=O)O)cc1 [Example 25, 2-Methyl-2-[4-{[(4-methyl-2-[4-bromophenyl]-thiazol-5-ylcarbonyl)amino]methyl}phenoxy]propionic Acid]
6.97 | ≤ 5.00 | ≤ 5.00 | Cc1nc(-c2ccc(C(F)(F)F)cc2)sc1C(=O)NCCc1ccc(OC(C)(C)C(=O)O)cc1 [Example 10, 2-Methyl-2-[4-{[(4-methyl-2-[4-trifluoromethylphenyl]-thiazol-5-ylcarbonyl)amino]ethyl}phenoxy]propionic Acid]
7.55 | ≤ 5.00 | ≤ 5.00 | Cc1nc(-c2ccc(Cl)c(Cl)c2)sc1C(=O)NCc1ccc(OC(C)(C)C(=O)O)cc1 [Example 21, 2-Methyl-2-[4-{[(4-methyl-2-[3,4-dichlorophenyl]-thiazol-5-ylcarbonyl)amino]methyl}phenoxy]propionic Acid]
7.44 | ≤ 5.00 | 5.61 | C#Cc1ccc(-c2nc(C)c(C(=O)NCc3ccc(OC(C)(C)C(=O)O)cc3)s2)cc1 [Example 39, 2-Methyl-2-[4-{[(4-methyl-2-[4-acetylenylphenyl]-thiazol-5-ylcarbonyl)amino]methyl}phenoxy]propionic Acid]
6.40 | ≤ 5.00 | 5.79 | Cc1nc(-c2ccc(C(F)(F)F)cc2)oc1C(=O)NCc1ccc(OC(C)(C)C(=O)O)cc1 [Example 45, 2-Methyl-2-[4-{[(4-methyl-2-[4-trifluoromethylphenyl]-oxazol-5-ylcarbonyl)amino]methyl}phenoxy]propionic Acid]
8.30 | 6.07 | ≤ 5.00 | Cc1nc(-c2ccc(C(C)(C)C)cc2)sc1C(=O)NCc1ccc(OC(C)(C)C(=O)O)cc1 [Example 13, 2-Methyl-2-[4-{[(4-methyl-2-[4-tertbutylphenyl]-thiazol-5-ylcarbonyl)amino]methyl}phenoxy]propionic Acid]
8.00 | ≤ 5.00 | 6.00 | COc1cc(CNC(=O)c2sc(-c3ccc(C(F)(F)F)cc3)nc2C)ccc1OC(C)(C)C(=O)O [Example 49, 2-Methyl-2-[2-methoxy-4-{[(4-methyl-2-[4-trifluoromethylphenyl]-thiazol-5-ylcarbonyl)amino]methyl}phenoxy]propionic Acid]
7.85 | ≤ 5.00 | 5.27 | Cc1nc(-c2ccc(Cl)cc2)sc1C(=O)NCc1ccc(OC(C)(C)C(=O)O)cc1 [Example 33, 2-Methyl-2-[4-{[(4-methyl-2-[4-chlorophenyl]-thiazol-5-ylcarbonyl)amino]methyl}phenoxy]propionic Acid]
6.64 | ≤ 5.00 | ≤ 5.00 | Cc1nc(-c2ccc(C(F)(F)F)cc2)sc1C(=O)N(C)Cc1ccc(OC(C)(C)C(=O)O)cc1 [Example 6, N-Methyl-2-methyl-2-[4-{[(4-methyl-2-[4-trifluoromethylphenyl]-thiazol-5-ylcarbonyl)amino]methyl}phenoxy]propionic Acid]
9.00 | 5.58 | 5.36 | Cc1nc(-c2ccc(C(C)C)cc2)sc1C(=O)NCc1ccc(OC(C)(C)C(=O)O)cc1 [Example 15, 2-Methyl-2-[4-{[(4-methyl-2-[4-isopropylphenyl]-thiazol-5-ylcarbonyl)amino]methyl}phenoxy]propionic Acid]
7.77 | ≤ 5.00 | ≤ 5.00 | CCOC(=O)C(C)(C)Oc1ccc(CNC(=O)c2sc(-c3ccc(C(F)(F)F)cc3)nc2C)cc1 [Example 1, 2-Methyl-2-[4-{[(4-methyl-2-[4-trifluoromethylphenyl]thiazol-5-ylcarbonyl)amino]methyl}phenoxy]propionic Acid Ethyl Ester]
7.70 | ≤ 5.00 | ≤ 5.00 | COc1ccc(-c2nc(C)c(C(=O)NCc3ccc(OC(C)(C)C(=O)O)cc3)s2)cc1 [Example 37, 2-Methyl-2-[4-{[(4-methyl-2-[4-methoxyphenyl]-thiazol-5-ylcarbonyl)amino]methyl}phenoxy]propionic Acid]
7.57 | ≤ 5.00 | ≤ 5.00 | Cc1nc(-c2ccc([N+](=O)[O-])cc2)sc1C(=O)NCc1ccc(OC(C)(C)C(=O)O)cc1 [Example 17, 2-Methyl-2-[4-{[(4-methyl-2-[4-nitrophenyl]-thiazol-5-ylcarbonyl)amino]methyl}phenoxy]propionic Acid]
 | ≤ 5.00 | 5.53 | Cc1nc(-c2ccc(C(F)(F)F)cc2)sc1C(=O)NCc1ccc(OC(C)(C)C(=O)O)cc1 [Example 2, 2-Methyl-2-[4-{[(4-methyl-2-[4-trifluoromethylphenyl]-thiazol-5-ylcarbonyl)amino]methyl}phenoxy]propionic Acid]
8.30 | 6.08 | ≤ 5.00 | CC(C)(Oc1ccc(CNC(=O)c2sc(-c3ccc(C(F)(F)F)cc3)nc2C(F)(F)F)cc1)C(=O)O [Example 41, 2-Methyl-2-[4-{[(4-trifluoromethyl-2-[4-trifluoromethylphenyl]-thiazol-5-ylcarbonyl)amino]methyl}phenoxy]propionic Acid]
